According to patent EP0006987A1, “2,4-Diamino-5-benzylpyrimidines, especially for the treatment of microbial infections, pharmaceutical compositions containing these compounds and processes for preparing these compounds” (THE WELLCOME FOUNDATION LIMITED, priority 1978, dated 1980):
Structures can show the parent of a compound that is named as a salt. Where two headings read alike, the source gives them in different places. Marks after values point to notes of the source that are not given here.

Columns and labels:
[1] = test system: Escherichia coli (CN 314 ); assay: Activity against standard organism E. coli, MIC by agar dilution, relative to trimethoprim; type: cell-based; conditions: expressed as activity versus TMP activity
Experimental: The medium was then immediately poured into plates. The test compounds were dissolved as the isothionates. […] Because the amount of growth produced by the strains varied, the inocula was not constant in these tests, in the Repeat Examination, the inocula were standardised to give "just confluent'' growth. The MIC's were read as that concentration which produced 90% or more inhibition of growth as compared macroscopically with that of the control growth. The incubation period for the Screening Examination was 24 hours and for the Repeat Examination 48 hours. As standards, Escherichia coli (CN 314 ) and trimethoprim (TMP) were included in each test.

Neisseria gonorrhoeae = assay: Antigonococcal activity, MIC by agar dilution, relative to trimethoprim; type: cell-based; conditions: expressed as activity versus TMP activity, 17 strains; for Antigonococcal Activity v.N.gonorrhaeae G.C.A.: Difco G.C. Agar; for Antigonococcal Activity v.N.gonorrhaeae W.S.T.A. (Repeat Examination) / Antigonococcal Activity v.N.gonorrhaeae W.S.T.A.: Wellcotest Sensitivity Test Agar; for Antigonococcal Activity v.N.gonorrhaeae W.S.T.A. (Repeat Examination): standardised inocula, 48 hours incubation; for Antigonococcal Activity v.N.gonorrhaeae W.S.T.A.: Screening Examination, 24 hours incubation
Experimental: (§1) The antigonococcal activity of 2,4-diamino-(3,5-diethyl-4-hydroxybenzyl)pyrimidine (compound 1), 2,4-diamino-(4-hydroxy-3,5-di-n-propylbenzyl)pyrimidine (compound 2), 2,4-diamino-(3-ethyl-4-hydroxy-5-n-propylbenzyl)pyrimidine (compound 3),24-diamino-(4-hydroxy-3,5-di-i-propylbenzyl)pyrimidine (compound 4) and 2,4-·diamino-·(3,5-di--t-butyl-4-hydroxybenzyl) pyrimidine (compound 5) and the antimeningococcal activity of compounds 2,3 and 4 were determined […] by the following methods. The activities were measured against 17 strains of Neisseria gonorrhoeae and 5 strains of Neisseria meningitidis in Wellcotest Sensitivity Test Agar supplemented with 5$ heated horse blood and 5% unheated lysed horse blood, In practice, 5% blood was added to 500ml quantities of the medium at 56°C and, after being placed in a 80°C water bath for 15 minutes and then cooled to 56°C, the lysed blood and the test compounds were added. The medium was then immediately poured into plates. The test compounds were dissolved as the isothionates.
(§2) In the Screening Examination, which consisted of 6 separate tests, the minimum inhibitory concentrations (MIC's) were determined in one-third interval dilutions and then reexamined in one-half interval dilution.
(§3) The inoculum in the Screening Examination was from an 18-hour Mueller-Hinton heated-blood broth culture, and applied with a lmm loop which was streaked along lcm.. Because the amount of growth produced by the strains varied, the inocula was not constant in these tests, in the Repeat Examination, the inocula were standardised to give "just confluent'' growth. The MIC's were read as that concentration which produced 90% or more inhibition of growth as compared macroscopically with that of the control growth. The incubation period for the Screening Examination was 24 hours and for the Repeat Examination 48 hours.
(§4) As standards, Escherichia coli (CN 314 ) and trimethoprim (TMP) were included in each test.
(§5) Using the above method the activities of compound 5 was measured against the same 17 strains of Neisseria gonorrhoeae and 5 strains of Neisseria meningitidis in Difco G.C. Agar.

[2] = Blood, urine and tissue concentrations in mice after oral administration (microbiological assay with Bacillus pumilus); type: in vivo; conditions: 2mg/mouse P.O.; for Urine Direct (percentage in brackets): appears to be direct urine concentration as percent of that after Glusalase; for concentration at 1 h / concentration at 2 h / concentration at 4 h: po; for concentration at 1 h: 1 hour after dosing, read-out: Conc. in blood at 1HR; for concentration at 2 h: 2 hours after dosing, read-out: Conc. in blood at 2HR
Experimental: Also shown in Table 1 is the concentration of each of the compounds in the blood urine and tissues of mice after oral administration. These concent rations were determined as described hereafter. The compounds, suspended in 0.1% methylcellulose, were administered by stomach tube to groups of 3 mice, the dose was 2.0mg per 20g mouse and blood was collected from the orbital sinus at 1, 2 and 4 hours after the dosing. Urine was collected directly from each animal at the 4th hour, after which the animals were killed. Liver, lung, brain and muscle was taken from each animal and homogenised in an equal volume (w/v) of water in a Polytron Homogenizer. The suspensions were taken to be 1:2 extracts of the tissues.
The concentrations of the drugs were determined microbiologically, using Bacillus pumilus, those in the urine determined both before and after 18 hours incubation with Glusalase (gluecuronidase and sulfatase).

Neisseria meningitidis = assay: Antimeningococcal activity, MIC by agar dilution, relative to trimethoprim; type: cell-based; conditions: expressed as activity versus TMP activity; 5 strains
Experimental: as §1, §2, §3, §4, §5

[3] = Acute oral toxicity in rats; conditions: rat, in vivo
[4] = Acute oral toxicity in mice; conditions: mouse, in vivo
[5] = blood, 4 hours after dosing, read-out: Conc. in blood at 4HR
[6] = brain, 4 hours, tissue homogenate, read-out: Concentration at 4HRS in: Brain
[7] = liver, 4 hours, tissue homogenate, read-out: Concentration at 4HRS in: Liver
[8] = muscle, 4 hours, tissue homogenate, read-out: Concentration at 4HRS in: Muscle
[9] = 4 hours, urine after 18 hours incubation with Glusalase (glucuronidase and sulfatase), read-out: Concentration at 4HRS in: Urine After glacolase
[10] = 4 hours, urine before incubation with Glusalase, read-out: Concentration at 4HRS in: Urine Direct
[11] = lung, 4 hours, tissue homogenate, read-out: Concentration at 4HRS in: Lung

In the case of `COc1cc(Cc2cnc(N)nc2N)cc(OC)c1OC` [TMP, 2,4-diamino-5-(3,4,5-trimethoxybenzyl)pyrimidine, reference compound], the “Antigonococcal Activity v.E.coli (CN314)” value [1] was 1, the “Antigonococcal Activity v.N.gonorrhaeae G.C.A.” value (Neisseria gonorrhoeae) was 1 and the “Antigonococcal Activity v.N.gonorrhaeae W.S.T.A. (Repeat Examination)” value (Neisseria gonorrhoeae) was 1. The “Antigonococcal Activity v.N.gonorrhaeae W.S.T.A.” value (Neisseria gonorrhoeae) was 1, the “Urine Direct (percentage in brackets)” value ([2]; 4 hours) was 50% and the concentration at 1 h ([2]; blood) was 2.15 µg/mL. The concentration at 2 h ([2]; blood) was 0.28 µg/mL, the concentration at 4 h [2, 5] was < 0.02 µg/mL and the concentration at 4 h [2, 6] was < 0.04 µg/mL. The concentration at 4 h [2, 7] was 1.08 µg/mL, the concentration at 4 h [2, 8] was < 0.04 µg/mL and the concentration at 4 h [2, 9] was 400 µg/mL. For the same compound, the concentration at 4 h [2, 10] was 200 µg/mL and the “Antigonococcal Activity v.N.meningitidis” value (Neisseria meningitidis) was 1.
For `CCc1cc(Cc2cnc(N)nc2N)cc(CC)c1O` [COMPOUND 1, 2,4-diamino-(3,5-diethyl-4-hydroxybenzyl)pyrimidine], the “Antigonococcal Activity v.N.gonorrhaeae W.S.T.A.” value (Neisseria gonorrhoeae) was 7, the “Urine Direct (percentage in brackets)” value ([2]; 4 hours) was 7% and the concentration at 1 h ([2]; blood) was 1.11 µg/mL. It also gave a concentration at 2 h ([2]; blood) of 0.41 µg/mL, a concentration at 4 h [2, 5] of 0.4 µg/mL and a concentration at 4 h [2, 6] of 0.34 µg/mL. The concentration at 4 h [2, 7] was 1.94 µg/mL, the concentration at 4 h [2, 11] was 1.75 µg/mL and the concentration at 4 h [2, 8] was < 0.03 µg/mL. It also gave a concentration at 4 h [2, 9] of 790 µg/mL and a concentration at 4 h [2, 10] of 56 µg/mL.
In the case of `CCCc1cc(Cc2cnc(N)nc2N)cc(CCC)c1O` [COMPOUND 2, 2,4-diamino-(4-hydroxy-3,5-di-n-propylbenzyl)pyrimidine], the “Antigonococcal Activity v.E.coli (CN314)” value [1] was 0.03, the “Antigonococcal Activity v.N.gonorrhaeae W.S.T.A. (Repeat Examination)” value (Neisseria gonorrhoeae) was 17^** and the “Antigonococcal Activity v.N.gonorrhaeae W.S.T.A.” value (Neisseria gonorrhoeae) was 21. For the same compound, the “Urine Direct (percentage in brackets)” value ([2]; 4 hours) was 2.5%, the concentration at 1 h ([2]; blood) was 1.36 µg/mL and the concentration at 2 h ([2]; blood) was 0.5 µg/mL. The concentration at 4 h [2, 5] was 0.44 µg/mL, the concentration at 4 h [2, 6] was 0.5 µg/mL and the concentration at 4 h [2, 7] was 3.75 µg/mL. For the same compound, the concentration at 4 h [2, 11] was 1.8 µg/mL, the concentration at 4 h [2, 8] was < 0.03 µg/mL and the concentration at 4 h [2, 9] was 650 µg/mL. The concentration at 4 h [2, 10] was 16 µg/mL and the “Antigonococcal Activity v.N.meningitidis” value (Neisseria meningitidis) was 11.
In the case of `CC(C)c1cc(Cc2cnc(N)nc2N)cc(C(C)C)c1O` [2,4-diamino-5-(3,5-diisopropyl-4-hvdroxyberzyl) pyrimidine lactate salt], the LD50 [3] was > 100 mg/kg, the LD50 ([4]; female mice, read-out: LD50 (mice) female) was 2890 mg/kg and the LD50 ([4]; male mice, read-out: LD50 (mice) male) was 2830 mg/kg.
For `CC(C)(C)c1cc(Cc2cnc(N)nc2N)cc(C(C)(C)C)c1O` [COMPOUND 5, 2,4-·diamino-·(3,5-di--t-butyl-4-hydroxybenzyl) pyrimidine], the “Antigonococcal Activity v.N.gonorrhaeae G.C.A.” value (Neisseria gonorrhoeae) was 7, the “Urine Direct (percentage in brackets)” value ([2]; 4 hours) was 42% and the concentration at 1 h ([2]; blood) was 4.25 µg/mL. The concentration at 2 h ([2]; blood) was 4 µg/mL, the concentration at 4 h [2, 5] was 3 µg/mL and the concentration at 4 h [2, 6] was 4.4 µg/mL. For the same compound, the concentration at 4 h [2, 7] was 6 µg/mL, the concentration at 4 h [2, 11] was 11.2 µg/mL and the concentration at 4 h [2, 8] was < 0.26 µg/mL. It also gave a concentration at 4 h [2, 9] of 240 µg/mL and a concentration at 4 h [2, 10] of 100 µg/mL.
With `CC(C)c1cc(Cc2cnc(N)nc2N)cc(C(C)C)c1O` [COMPOUND 4, 24-diamino-(4-hydroxy-3,5-di-i-propylbenzyl)pyrimidine] the “Antigonococcal Activity v.E.coli (CN314)” value [1] was 0.03, the “Antigonococcal Activity v.N.gonorrhaeae G.C.A.” value (Neisseria gonorrhoeae) was 13 and the “Antigonococcal Activity v.N.gonorrhaeae W.S.T.A. (Repeat Examination)” value (Neisseria gonorrhoeae) was 17^**. For the same compound, the “Antigonococcal Activity v.N.gonorrhaeae W.S.T.A.” value (Neisseria gonorrhoeae) was 18, the “Urine Direct (percentage in brackets)” value ([2]; 4 hours) was 50% and the concentration at 1 h ([2]; blood) was 1.38 µg/mL. The concentration at 2 h ([2]; blood) was 1.08 µg/mL, the concentration at 4 h [2, 5] was 0.65 µg/mL and the concentration at 4 h [2, 6] was 0.46 µg/mL. The concentration at 4 h [2, 7] was 8.3 µg/mL, the concentration at 4 h [2, 11] was 2.6 µg/mL and the concentration at 4 h [2, 8] was < 0.03 µg/mL. The concentration at 4 h [2, 9] was 190 µg/mL, the concentration at 4 h [2, 10] was 95 µg/mL and the “Antigonococcal Activity v.N.meningitidis” value (Neisseria meningitidis) was 7.
For `CCCc1cc(Cc2cnc(N)nc2N)cc(CC)c1O` [COMPOUND 3, 2,4-diamino-(3-ethyl-4-hydroxy-5-n-propylbenzyl)pyrimidine], the “Antigonococcal Activity v.E.coli (CN314)” value [1] was >0.1, the “Antigonococcal Activity v.N.gonorrhaeae W.S.T.A. (Repeat Examination)” value (Neisseria gonorrhoeae) was 18^** and the “Antigonococcal Activity v.N.gonorrhaeae W.S.T.A.” value (Neisseria gonorrhoeae) was 21. For the same compound, the “Urine Direct (percentage in brackets)” value ([2]; 4 hours) was 2.2%, the concentration at 1 h ([2]; blood) was 0.88 µg/mL and the concentration at 2 h ([2]; blood) was 0.9 µg/mL. For the same compound, the concentration at 4 h [2, 5] was 0.8 µg/mL, the concentration at 4 h [2, 6] was 0.44 µg/mL and the concentration at 4 h [2, 7] was 5 µg/mL. For the same compound, the concentration at 4 h [2, 11] was 3.6 µg/mL, the concentration at 4 h [2, 8] was 0.21 µg/mL and the concentration at 4 h [2, 9] was 1800 µg/mL. For the same compound, the concentration at 4 h [2, 10] was 39 µg/mL and the “Antigonococcal Activity v.N.meningitidis” value (Neisseria meningitidis) was 7.
